Assay results published in patent US20090324737A1, “Antimicrobial And Sporicidal Composition” (priority 2002, published 2009).

System: Bacillus subtilis spores
Assay: Sporicidal activity against Bacillus subtilis spore suspension (cfu pour-plate count vs distilled water controls)
Type: cell-based
Conditions: spore suspension diluted 1:100 into composition
Experimental: Spore suspensions were prepared by streaking standard agar plates with Bacillus subtilis and then incubating the plates for 48-72 hours at 37° C. The resulting bacteria and their spores were scraped from the plates and suspended by agitation in a 50% ethanol-water solution for four hours in order to lyse the vegetative cells. The spores were collected by centrifugation, washed three times and then suspended in 50% ethanol-water, resulting in a spore titer of 10^9 spores/mL. […] After treatment, the spore suspensions were diluted in distilled water and duplicate aliquots from each dilution were pour-plated on tripticase soy agar. Total colony-forming units (cfu) were counted after incubation at 37° C. for 24 hours. Sporicidal activity was directly proportional to the reduction of cfu compared to the distilled water controls.
Test results from representative compositions are summarized in Table 1 and the associated graph of the data (FIG. 2). In addition, test data for exposure to 0.1% L-alanine in the absence of sporicidal agents is included.

`C[C@H](N)C(=O)O` [L-alanine] was tested, and the “Test results of Spore-inactivating Compositions vs. Exposure Time (cfu compared to distilled water controls)” value (exposure time 0.00 hrs) was 100.0%, the “Test results of Spore-inactivating Compositions vs. Exposure Time (cfu compared to distilled water controls)” value (exposure time 0.25 hrs) was 106.0% and the “Test results of Spore-inactivating Compositions vs. Exposure Time (cfu compared to distilled water controls)” value (exposure time 0.50 hrs) was 111.0%. For the same compound, the “Test results of Spore-inactivating Compositions vs. Exposure Time (cfu compared to distilled water controls)” value (exposure time 1.00 hrs) was 113.0% and the “Test results of Spore-inactivating Compositions vs. Exposure Time (cfu compared to distilled water controls)” value (exposure time 4.00 hrs) was 116.0%.
